Measured values from patent publication US4107201A, “S-Phenenyltris(thioureylene)trinaphthalenetrisulfonic acid salts” (American Cyanamid Company, priority 1977, dated 1978).
Counter-ions that a name gives are not always drawn.

Key:
whole complement = assay: Complement Level Reduction Test: serum whole complement of dosed guinea pigs by capillary tube assay; type: in vivo; conditions: guinea pig, vs simultaneous controls
Description: An active inhibitor protects C2 from C1 and C4; (ii) Test, Code 035 (C3-C9 inhibitor) -- This test determines the ability of the late components of human complement (C3-C9) to lyse EAC 142 in the presence of appropriate dilutions of the test compound. An active inhibitor protects EAC 142 from lysis by human C3-C9; (iii) Test, Code 036 (C-Shunt inhibitor) -- In this test human erythrocytes rendered fragile are lysed in autologous serum via the shunt pathway activated by cobra venom factor in the presence of appropriate dilutions of the test compound. Inhibition of the shunt pathway results in failure of lysis; (iv) Forssman Vasculitis Test -- Here, the well known complement dependent lesion, Forssman vasculitis, is produced in guinea pigs by intradermal injection of rabbit anti-Forssman antiserum. The lesion is measured in terms of diameter, edema and hemorrhage and the extent to which a combined index of these is inhibited by prior intraperitoneal injection of the test compound at 200 mg/kg is then reported, unless otherwise stated; (v) Forssman Shock Test -- Lethal shock is produced in guinea pigs by an i.v. injection of anti-Forssman antiserum and the harmonic mean death time of treated guinea pigs is compared with that of simultaneous controls; (vi) Complement Level Reduction Test -- In this test, the above dosed guinea pigs, or others, are bled for serum and the complement level is determined in undiluted serum by the capillary tube method of U.S. Pat. No. 3,876,376 and compared to undosed control guinea pigs; and (vii) Cap 50 Test -- Here, appropriate amounts of the test compound are added to a pool of guinea pig serum in vitro, after which the undiluted serum capillary tube assay referred to above is run. The concentration of compound inhibiting 50% is reported.
With reference to Table I, guinea pigs weighing about 300 g were dosed intravenously (i.v.) or intraperitoneally (i.p.) with 200 mg/kg of the test compound dissolved in saline and adjusted to pH 7-8. […] The serum was tested for whole complement using the capillary tube assay. Percent inhibition was calculated by comparison with simultaneous controls. The results appear in Table I together with results of tests, code 026, 035, 036, Cap 50, % inhibition and Forssman shock.

[1] = system: late components of human complement (C3-C9); assay: Test, Code 035 (C3-C9 inhibitor): lysis of EAC 142 by late components of human complement; type: biochemical; conditions: well number in two-fold serial dilution assay; higher well number indicates higher activity
Description: An active inhibitor protects C2 from C1 and C4; (ii) Test, Code 035 (C3-C9 inhibitor) -- This test determines the ability of the late components of human complement (C3-C9) to lyse EAC 142 in the presence of appropriate dilutions of the test compound. An active inhibitor protects EAC 142 from lysis by human C3-C9; (iii) Test, Code 036 (C-Shunt inhibitor) -- In this test human erythrocytes rendered fragile are lysed in autologous serum via the shunt pathway activated by cobra venom factor in the presence of appropriate dilutions of the test compound. Inhibition of the shunt pathway results in failure of lysis; (iv) Forssman Vasculitis Test -- Here, the well known complement dependent lesion, Forssman vasculitis, is produced in guinea pigs by intradermal injection of rabbit anti-Forssman antiserum. […]

complement system = conditions: cited from earlier work
[2] = system: hereditary angioneurotic edema; conditions: in vivo; cited from earlier work
[3] = system: total hemolytic complement activity (human serum); conditions: in vitro and in vivo, reduction in total hemolytic complement activity; cited from earlier work

O=S(=O)(O)c1cc(NC(=S)Nc2cc(NC(=S)Nc3cc(S(=O)(=O)O)cc4cc(S(=O)(=O)O)cc(S(=O)(=O)O)c34)cc(NC(=S)Nc3cc(S(=O)(=O)O)cc4cc(S(=O)(=O)O)cc(S(=O)(=O)O)c34)c2)c2c(S(=O)(=O)O)cc(S(=O)(=O)O)cc2c1 [8,8',8"-[s-Phenenyltris(2-thioureylene)]tri-1,3,6-naphthalenetrisulfonic acid nonasodium salt]
% change in serum whole complement level (whole complement; 200 mg/kg i.p., 30 mins.): -81%
% change in serum whole complement level (whole complement; 200 mg/kg i.p., 60 mins.): -84%
% change in serum whole complement level (whole complement; 200 mg/kg i.p., 120 mins.): -91%
% change in serum whole complement level (whole complement; 200 mg/kg i.v., 2 mins.): -98%
% change in serum whole complement level (whole complement; 200 mg/kg i.v., 30 mins.): -92%
% change in serum whole complement level (whole complement; 200 mg/kg i.v., 120 mins.): -86%
C-Late 035 Wells [1]: +1 Wells

Cc1ccc(C(=O)Nc2ccc(S(=O)(=O)O)c3cc(S(=O)(=O)O)cc(S(=O)(=O)O)c23)cc1NC(=O)c1cccc(NC(=O)Nc2cccc(C(=O)Nc3cc(C(=O)Nc4ccc(S(=O)(=O)O)c5cc(S(=O)(=O)O)cc(S(=O)(=O)O)c45)ccc3C)c2)c1 [Suramin]
anticomplementary effect / complement inhibition (complement system): competitive inhibitor of the complement system
use in treatment of hereditary angioneurotic edema [2]: used with success

Nc1ccc2cc(S(=O)(=O)O)cc(O)c2c1N=Nc1ccc(NC(=O)Nc2ccc(N=Nc3c(N)ccc4cc(S(=O)(=O)O)cc(O)c34)c(S(=O)(=O)O)c2)cc1S(=O)(=O)O [chlorazol fast pink, 3,3'-ureylenebis-[6-(2-amino-8-hydroxy-6-sulfo-1-naphthylazo)]benzenesulfonic acid, tetrasodium salt]
anticomplementary effect / complement inhibition (complement system): anticomplementary effect

NCCCCCC(=O)O [epsilon-aminocaproic acid]
use in treatment of hereditary angioneurotic edema [2]: used with success

NC[C@H]1CC[C@H](C(=O)O)CC1 [tranexamic acid]
use in treatment of hereditary angioneurotic edema [2]: used with success

heparin
anticomplementary effect / complement inhibition (complement system): anticomplementary effect

pentosan-poly-sulfoester
anticomplementary activity on human serum [3]: anticomplementary activity on human serum both in vitro and in vivo
